Assays:
[1] = Accelerated flow-device release test of extruded/spun fibers; type: physicochemical; conditions: trifluralin/nanoclay/polypropylene fiber material, water with 0.01% Tween 20, ca. 23° C.
Method: For extrusion and spinning of fibers, the trifluralin-loaded nanoclay is prepared from batches containing 3500 grams of trifluralin and 5476 grams of the nanoclay by the method described in Example 1. The particle size requirement is that the sample pass through a #60 U.S. Sieve (<250 microns). The loading of the trifuralin/nanoclay/polypropylene fiber material in a polyester matrix that is adjusted to provide between 4 and 8% TFN (w/w) for the first fiber run, and 3% TFN (w/w) for the second test run. Pelletized PP material is used for the extrusion and spinning of fibers.
These samples are placed in a flow device that exposed the sample to water that contains 0.01% Tween 20. It is operated at room temperature (ca. 23° C.). These conditions are used as an accelerated test in which 24 hours represents 2 or 3 years of exposure in the environment. This correlation is based on the slope of Arrenhius plots over a temperature range of 10° C. to 50° C. similar systems. During the first few hours, the release rate is high, usually over 100 μg/cm^2/day. The test is continued until the release rate reaches the steady state.

[2] = Accelerated flow-device release test of injection molded sheets; type: physicochemical
Method: Injection molded samples (Table 3) were prepared using a Model 45 MINI-JECTOR (Mini-Jector Machinery Corp., Newbury, Ohio). The mold to be used produces test sheets that were 7.5×5 cm and 1 mm thick. The polyethylene used was powdered Quantum Microthene (XU594, 35 mesh). The polymer was mixed with the aplatelet clay or aplatelet nanoclay to provide a final ratio of 2 parts trifluralin to 20 parts polymer (24 gm load for each injection). For the PE, the injector is set up to melt the mixture at 127° C., with the injection nozzle heated to 138° C. Polypropylene is melted and injected at 163° C.
These sheets were washed in 90% MeOH to remove surface TFN contamination and placed into a flow device that exposes the sample to water that contains 0.01% Tween 20 and 0.5% MeOH. The system is operated at room temperature (ca. 23° C.). These conditions are used as an accelerated test in which 24 hours represents 2-3 years of exposure in the environment. During the first few hours, the release rate is high, usually over 100 μg/cm^2/day.

CCCN(CCC)c1c([N+](=O)[O-])cc(C(F)(F)F)cc1[N+](=O)[O-] [trifluralin, Trifluralin]
release rate during the first few hours [1]: over 100 μg/cm^2/day
release rate during the first few hours ([2]; injection molded polymer sheets with trifluralin-loaded aplatelet clay or nanoclay, water with 0.01% Tween 20 and 0.5% MeOH, ca. 23° C., first few hours): over 100 μg/cm^2/day
rate of trifluralin release from polypropylene relative to standard polyethylene ([2]; polypropylene matrix versus standard polyethylene): ≥ 2%

From patent US20160057994A1, “Aplatelet Clays for Sustained Release of Active Ingredients” (BioGuard Research and Development, Inc., priority 2013, published 2016)
